According to patent publication US20240189263A1, “DERIVATIZED C60 MOLECULES AND METHODS AND MATERIALS FOR USING DERIVATIZED C60 MOLECULES TO REDUCE RADIATION INJURY” (Mayo Foundation for Medical Education and Research, priority 2021, published 2024):

Experiments:
[1] = system: NIH3T3 cells; experiment: Classic clonogenics survival assay of irradiated cells, NIH3T3; format: cell-based
Procedure: A classic clonogenics assay was performed to further test the ability of C60-ser to protect against radiation damage. After irradiation, a fraction of the cells will undergo radiation-induced death, whereas other cells remain metabolically active and are able to undergo a few cycles of mitosis before meeting their endpoint. Since many cells remain metabolically activity, classic toxicity measurements such as an MTT measurement are not able to catch the full effects of radiation damage. In contrast, a classic clonogenics assay, which plates a known number of cells and tracks development of colonies, is able to track the number of cells that maintain their clonogenicity. With increasing radiation doses, the fraction of cells that maintain clonogenicity decrease. Therefore, a successful radioprotectant is able to increase the number of surviving colonies compared to the control at the same radiation doses.
N2A, NIH3T3, and HepG2 cells were plated in 35 mm dishes and treated with 100 μM C60-ser for 2 hours prior to washing with PBS and irradiation at 0, 2, 4, and 6 Gy with a 230 MeV proton beam. Following radiation, a known number of cells were re-plated in six well plates and allowed to grow in culture for 8-14 days to allow for colony formation. To account for cell death with higher radiation doses, a larger number of cells were plated with increasing doses received. […]

[2] = system: N2A cells; experiment: DNA damage, γH2AX foci immunofluorescence, N2A; format: cell-based
Procedure: To test the ability of C60-ser to protect against radiation injury, the level of DNA damage in response to radiation was analyzed by measuring γH2AX. The H2AX protein becomes phosphorylated into γH2AX as a result of DNA double strand breaks. This allows for the visualization and quantification of double strand break foci through immunofluorescence analysis. Cells were plated on 8 chamber slides and incubated overnight before C60-ser treatment. Three sets of slides per cell line (to be irradiated with 0, 0.5, and 1 Gy) were prepared, with the top 4 rows used as a control and the bottom 4 rows incubated with 100 μM C60-ser. Cells were incubated with C60-ser for 2 hours before irradiation with a clinical Proteus One proton machine (Ion Beam Applications, Louvain-la-Neuve, Belgium). A 230 MeV mono-energetic unmodulated broad beam of large field size that encompassed all slides containing the cells was used to deliver the 0.5 and 1 Gy doses. White solid water slabs (IBA Dosimetry, Germany) provided the necessary phantom material to place the cells at the desired 8 cm depth with an LET of approximately 1.7 keV/μm. After irradiation, cells were incubated at 37° C. with 5% CO2 for 30 minutes before washing and fixing the cells with 1% formaldehyde. The cells were permeabilized with 1% NP-40 and incubated with 5% BSA to block unspecific antibody bonding. The cells were then incubated with γH2AX primary antibody followed by a secondary antibody. Mounting media containing DAPI was used before applying cover slips and sealing the samples. Cells were imaged on an Olympus IX71 trinocular inverted fluorescence phase contrast microscope with a 40× objective. The resulting images were analyzed by ImageJ, and the foci were counted.

## O=C(NC(CO)CO)C1(C(=O)NC(CO)CO)C23c4c5c6c7c8c4-c4c2c2c9c%10c4C4%11c%12c-%10c%10c%13c%14c%12-c%12c(c-7c7c%15c%12C%14%12C(C(=O)NC(CO)CO)(C(=O)NC(CO)CO)C%12%14c%12c%16c%17c%18c(c%12-%15)C7%12C(C(=O)NC(CO)CO)(C(=O)NC(CO)CO)C6%12c6c-5c5c7c(c6-%18)C%176C(C(=O)NC(CO)CO)(C(=O)NC(CO)CO)C6%12c6c-7c(c-2c2c6-c6c%12c-%16c%14c-%13c6C%106C(C(=O)NC(CO)CO)(C(=O)NC(CO)CO)C926)C513)C84C%11(C(=O)NC(CO)CO)C(=O)NC(CO)CO (centres unmarked) [C60-ser, C60-serinol]
[1]; NIH3T3, 100 μM 2 hours before irradiation
  fraction of surviving cells: increased the fraction of surviving cells
[1]; NIH3T3, 100 μM 2 hours, 0-6 Gy 230 MeV proton
  dose enhancement factor (DEF) at 20% surviving fraction: 0.85±0.03
[2]; 100 μM 2 hours before 0.5 Gy proton radiation
  γH2AX foci vs control: trend towards reduction in total foci formed, but it was not statistically significant
[2]; 100 μM 2 hours before 1 Gy proton radiation
  γH2AX foci vs control: significant decrease in the number of foci
[2]; 100 μM 2 hours, absence of radiation
  γH2AX foci vs control: no significant different in foci expression
